Reference: patent US8410144B2, “Substituted indolo-pyridinone compounds” (ArQule, Inc., priority 2009, dated 2013)

Legend:
[1] = system: KATO III; assay: MTS assay, KATO III cells; assay type: cell-based; conditions: 72 hours; for inhibition at 10 µM: Homo sapiens, read-out: KATO III, MTS cell kill % inhibition
Experimental: (§1) Cells were maintained at 37° C., 5% CO2 in DMEM media supplemented with 1% fetal bovine serum, penicillin/streptomycin and fungizone (Invitrogen). Cells were seeded into 96-well tissue culture plates at 3000 per well and cultured at 37° C. for 18 hours. Test compounds were dissolved and diluted to 300× in DMSO then diluted 1:40 in DMEM. Cells were incubated with test compounds for 72 hours followed by incubation with tetrazolium compound (3-(4,5-dimethylthiazol-2-yl)-5-(3-carboxymethoxyphenyl)-2-(4-sulfophenyl)-2H-tetrazolium, inner salt; MTS) and the electron coupling reagent, phenazine methosulfate (PMS) for 4 hours. […] The ability of compounds to inhibit cell growth in this assay is correlated with the reduction of dehydrogenase enzyme activity found in metabolically active cells. The measurement of the absorbance of the formazan was assessed using an ENVISION™ (Perkin Elmer) microplate reader at 492 nm. The calculated IC50 value is the concentration of the test compound that causes a 50% decrease in the absorbance.

[2] = system: NCI-H1299; assay: MTS assay, NCI-H1299 cells; assay type: cell-based; conditions: 72 hours; for inhibition at 10 µM: Homo sapiens, read-out: NCI-H1299, MTS cell kill % inhibition
Experimental: as §1

[3] = system: DLD-1; assay: MTS assay, DLD-1 cells; assay type: cell-based; conditions: 72 hours; for inhibition at 10 µM: Homo sapiens, read-out: DLD-1, MTS cell kill % inhibition
Experimental: as §1

[4] = system: MDA-MB-231; assay: MTS assay, MDA-MB-231 cells; assay type: cell-based; conditions: 72 hours; for inhibition at 10 µM: Homo sapiens, read-out: MDA-MB-231, MTS cell kill % inhibition
Experimental: as §1

[5] = target: IGF-1R (Homo sapiens, UniProt P08069); assay: IGFR1 activity assay (ELISA); assay type: biochemical; conditions: for inhibition at 30 µM: read-out: IGF-1R, PCT INH (30 μM), ELISA
Sequence of IGF-1R (P08069 31-1367): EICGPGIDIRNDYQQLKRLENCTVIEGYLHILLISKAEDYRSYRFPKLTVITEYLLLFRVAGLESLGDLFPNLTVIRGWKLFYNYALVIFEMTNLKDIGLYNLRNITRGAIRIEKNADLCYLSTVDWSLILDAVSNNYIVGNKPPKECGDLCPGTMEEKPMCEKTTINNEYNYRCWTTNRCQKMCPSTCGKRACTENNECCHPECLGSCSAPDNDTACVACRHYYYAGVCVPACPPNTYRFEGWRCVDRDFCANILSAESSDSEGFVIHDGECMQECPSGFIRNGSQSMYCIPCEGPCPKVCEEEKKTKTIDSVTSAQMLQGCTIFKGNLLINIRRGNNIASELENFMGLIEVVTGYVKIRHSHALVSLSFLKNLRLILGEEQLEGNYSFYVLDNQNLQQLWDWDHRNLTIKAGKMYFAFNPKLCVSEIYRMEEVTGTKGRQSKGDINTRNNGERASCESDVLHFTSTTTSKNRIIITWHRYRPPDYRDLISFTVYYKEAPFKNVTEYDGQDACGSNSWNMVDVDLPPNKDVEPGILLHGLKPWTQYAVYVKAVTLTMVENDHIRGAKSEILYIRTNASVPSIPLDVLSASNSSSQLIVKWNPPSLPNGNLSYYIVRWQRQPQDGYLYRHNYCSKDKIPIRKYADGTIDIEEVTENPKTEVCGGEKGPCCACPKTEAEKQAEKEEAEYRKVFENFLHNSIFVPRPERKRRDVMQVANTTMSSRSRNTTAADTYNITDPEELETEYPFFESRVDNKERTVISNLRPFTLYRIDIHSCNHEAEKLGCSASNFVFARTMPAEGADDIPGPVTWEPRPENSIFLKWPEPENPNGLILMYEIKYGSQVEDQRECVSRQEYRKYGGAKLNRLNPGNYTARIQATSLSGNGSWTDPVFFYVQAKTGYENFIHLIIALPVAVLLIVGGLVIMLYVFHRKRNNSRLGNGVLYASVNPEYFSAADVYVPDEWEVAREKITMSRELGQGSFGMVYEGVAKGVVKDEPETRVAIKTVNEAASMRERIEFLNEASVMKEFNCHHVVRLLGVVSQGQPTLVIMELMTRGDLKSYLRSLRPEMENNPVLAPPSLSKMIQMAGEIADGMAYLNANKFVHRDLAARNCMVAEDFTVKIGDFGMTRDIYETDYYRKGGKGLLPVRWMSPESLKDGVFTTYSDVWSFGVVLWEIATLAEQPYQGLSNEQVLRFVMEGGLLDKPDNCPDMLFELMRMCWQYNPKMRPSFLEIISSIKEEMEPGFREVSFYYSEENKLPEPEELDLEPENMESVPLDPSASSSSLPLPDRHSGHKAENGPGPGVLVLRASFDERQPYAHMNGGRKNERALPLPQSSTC
Experimental: The disclosed compounds were assayed for their ability to inhibit insulin-like growth factor receptor-1 (IGFR1). Nunc Maxisorb plates were coated with streptavidin by overnight incubation with 100 μL per well of 1 μg/ml Streptavidin in DPBS. Prior to the start of the experiment, the plates were washed with TBST (3×200 μL) and blocked for at least 1 hour by adding 150 μL of 5% BSA/TBST. The plates were washed with TBST (3×200 μL/well) and left to dry immediately before the capture step.
The disclosed test articles and controls (Staurosporine) were prepared using the following assay buffer at 3× desired final concentration (50 mM Tris-HCl, 0.02 mg/ml BSA, 10 mM MgCl2, 0.1 mM Na3VO4, 1 mM EGTA, 12.5 μM ATP, 0.01% NP-40, 1 mM DTT in 10% glycerol/water). 20 μL of the test compounds (or control), 20 μL IGF1R (0.33 ng/μL final concentration), and 20 μL of Pyk-2 (0.05 ng/μL final concentration) were rapidly added to the reaction plate. The plate was incubated at room temperature for one hour.
50 μL was transferred from the reaction plate to the streptavidin coated plate. The capture plate was incubated at room temperature for 30 minutes, then washed with TBST three times. 100 μL/well of Cell Signaling anti-phospho tyrosine was added to the capture plate at a dilution of 1:3000 in 2% BSA/TBST. The plate was incubated for one hour at room temperature then washed 6× with TBST. 100 μL/well of alkaline phosphatase tagged goat anti mouse antibody was added to the capture plate at a dilution of 1:4000 in 2% BSA/TBST. The plate was incubated for one hour at room temperature then washed with TBST six times.
The fluorescent readout is initiated by the addition of 100 μL/well of Attophos reagent (6 mg/10 mL). The reading is done on the Perkin Elmer Envision system.

Row | Compound | inhibition at 10 µM [1] | inhibition at 10 µM [2] | inhibition at 10 µM [3] | inhibition at 10 µM [4] | inhibition at 30 µM [5] | KATO III, MTS cell kill % inhibition ([1]; 10 μM) | NCI-H1299, MTS cell kill % inhibition ([2]; 10 μM) | DLD-1, MTS cell kill % inhibition ([3]; 10 μM) | MDA-MB-231, MTS cell kill % inhibition ([4]; 10 μM) | IGF-1R, PCT INH (30 μM), ELISA [5]
1 | CN(C)CCCNC(=O)c1ccc2[nH]c(-c3ccc[nH]c3=O)c(-c3ccc(-c4ccccc4)cc3)c2c1 [Compound 49, 3-biphenyl-4-yl-N-[3-(dimethylamino)propyl]-2-(2-oxo-1,2-dihydropyridin-3-yl)-1H-indole-5-carboxamide] | 80 to 100% | 80 to 100% | 80 to 100% | 80 to 100% | – | – | – | – | – | –
2 | COc1cccc(-c2c(-c3ccc[nH]c3=O)[nH]c3ccc(C(=O)NCCCN4CCOCC4)cc23)c1 [Compound 63, 3-(3-methoxyphenyl)-N-(3-morpholin-4-ylpropyl)-2-(2-oxo-1,2-dihydropyridin-3-yl)-1H-indole-5-carboxamide] | 80 to 100% | 80 to 100% | 50 to 79% | 50 to 79% | 80 to 100% | – | – | – | – | –
3 | O=C(c1ccc2[nH]c(-c3ccc[nH]c3=O)c(-c3ccccc3)c2c1)N1CCN(c2cnccn2)CC1 [Compound 25, 3-{3-phenyl-5-[(4-pyrazin-2-ylpiperazin-1-yl)carbonyl]-1H-indol-2-yl}pyridin-2(1H)-one] | 80 to 100% | 50 to 79% | 50 to 79% | – | 80 to 100% | – | – | – | – | –
4 | CN1CCC(N2CCN(C(=O)c3ccc4[nH]c(-c5ccc[nH]c5=O)c(-c5ccc(-c6ccccc6)cc5)c4c3)CC2)CC1 [Compound 50, 3-(3-biphenyl-4-yl-5-{[4-(1-methylpiperidin-4-yl)piperazin-1-yl]carbonyl}-1H-indol-2-yl)pyridin-2(1H)-one] | 80 to 100% | 80 to 100% | 80 to 100% | 80 to 100% | 50 to 79% | – | – | – | – | –
5 | O=C(c1ccc2[nH]c(-c3ccc[nH]c3=O)c(-c3ccc(-c4ccccc4)cc3)c2c1)N1CCN(CCN2CCOCC2)CC1 [Compound 37, 3-(3-biphenyl-4-yl-5-{[4-(2-morpholin-4-ylethyl)piperazin-1-yl]carbonyl]-1H-indol-2-yl)pyridin-2(1H)-one] | 80 to 100% | 80 to 100% | 80 to 100% | 80 to 100% | 80 to 100% | – | – | – | – | –
6 | O=C(NCc1ccccc1)c1ccc2[nH]c(-c3ccc[nH]c3=O)c(-c3ccc(-c4ccccc4)cc3)c2c1 [Compound 40, N-benzyl-3-biphenyl-4-yl-2-(2-oxo-1,2-dihydropyridin-3-yl)-1H-indole-5-carboxamide] | < 50% | 50 to 79% | < 50% | < 50% | < 50% | – | – | – | – | –
7 | O=C(NCc1ccc(F)cc1F)c1ccc2[nH]c(-c3ccc[nH]c3=O)c(-c3ccccc3)c2c1 [Compound 10, N-(2,4-difluorobenzyl)-2-(2-oxo-1,2-dihydropyridin-3-yl)-3-phenyl-1H-indole-5-carboxamide] | 80 to 100% | 80 to 100% | 80 to 100% | < 50% | 80 to 100% | – | – | – | – | –
8 | O=C(NCCCN1CCOCC1)c1ccc2[nH]c(-c3ccc[nH]c3=O)c(-c3ccc(Cl)cc3)c2c1 [Compound 69, 3-(4-chlorophenyl)-N-(3-morpholin-4-ylpropyl)-2-(2-oxo-1,2-dihydropyridin-3-yl)-1H-indole-5-carboxamide] | < 50% | < 50% | < 50% | 50 to 79% | 80 to 100% | – | – | – | – | –
9 | COc1ccc(C(C)C)cc1-c1c(-c2ccc[nH]c2=O)[nH]c2ccc(C(=O)NCCCN3CCOCC3)cc12 [Compound 64, 3-(5-isopropyl-2-methoxyphenyl)-N-(3-morpholin-4-ylpropyl)-2-(2-oxo-1,2-dihydropyridin-3-yl)-1H-indole-5-carboxamide] | < 50% | < 50% | < 50% | < 50% | 80 to 100% | – | – | – | – | –
10 | O=C(NCCCN1CCOCC1)c1ccc2[nH]c(-c3ccc[nH]c3=O)c(-c3cccc(Cl)c3)c2c1 [Compound 62, 3-(3-chlorophenyl)-N-(3-morpholin-4-ylpropyl)-2-(2-oxo-1,2-dihydropyridin-3-yl)-1H-indole-5-carboxamide] | 80 to 100% | 80 to 100% | 80 to 100% | 80 to 100% | 80 to 100% | – | – | – | – | –
11 | 3-[3-biphenyl-4-yl-5-({[3- (dimethylamino)propyl](methyl) amino}methyl)-1H-indol-2- yl]pyridin-2(1H)-one [Compound 53] | – | – | – | – | – | A (A = 80-100% inhibition) | A (A = 80-100% inhibition) | A (A = 80-100% inhibition) | A (A = 80-100% inhibition) | C (C = <50% inhibition)
12 | O=C(Nc1ccc(F)cc1Cl)c1ccc2[nH]c(-c3ccc[nH]c3=O)c(-c3ccccc3)c2c1 [Compound 18, N-(2-chloro-4-fluorophenyl)-2-(2-oxo-1,2-dihydropyridin-3-yl)-3-phenyl-1H-indole-5-carboxamide] | 50 to 79% | 80 to 100% | 50 to 79% | < 50% | < 50% | – | – | – | – | –
13 | O=C(NCCc1ccccn1)c1ccc2[nH]c(-c3ccc[nH]c3=O)c(-c3ccc(-c4ccccc4)cc3)c2c1 [Compound 39, 3-biphenyl-4-yl-2-(2-oxo-1,2-dihydropyridin-3-yl)-N-(2-pyridin-2-ylethyl)-1H-indole-5-carboxamide] | 80 to 100% | 80 to 100% | 80 to 100% | 80 to 100% | 50 to 79% | – | – | – | – | –
14 | COc1ccc(-c2c(-c3ccc[nH]c3=O)[nH]c3ccc(C(=O)NCCCN4CCOCC4)cc23)c(OC)c1 [Compound 81, 3-(2,4-dimethoxyphenyl)-N-(3-morpholin-4-ylpropyl)-2-(2-oxo-1,2-dihydropyridin-3-yl)-1H-indole-5-carboxamide] | < 50% | < 50% | < 50% | – | 80 to 100% | – | – | – | – | –
15 | O=C(c1ccc2[nH]c(-c3ccc[nH]c3=O)c(-c3ccccc3)c2c1)N1CCN(c2ccccc2F)CC1 [Compound 14, 3-(5-{[4-(2-fluorophenyl)piperazin-1-yl]carbonyl) -3-phenyl-1H-indol-2-yl)pyridin-2(1H)-one] | 80 to 100% | 50 to 79% | 50 to 79% | – | 80 to 100% | – | – | – | – | –
16 | O=C(NCc1ccc(F)cc1F)c1ccc2[nH]c(-c3ccc[nH]c3=O)c(-c3ccc(-c4ccccc4)cc3)c2c1 [Compound 34, 3-biphenyl-4-yl-N-(2,4-difluorobenzyl)-2-(2-oxo-1,2-dihydropyridin-3-yl)-1H-indole-5-carboxamide] | 80 to 100% | 50 to 79% | 50 to 79% | 50 to 79% | – | – | – | – | – | –
17 | COc1cc2c(cc1OC)CN(C(=O)c1ccc3[nH]c(-c4ccc[nH]c4=O)c(-c4ccccc4)c3c1)CC2 [Compound 21, 3-{5-[(6,7-dimethoxy-3,4-dihydroisoquinolin-2(1H)-yl)carbonyl]-3-phenyl-1H-indol-2-yl}pyridin-2(1H)-one] | 80 to 100% | 80 to 100% | 50 to 79% | – | < 50% | – | – | – | – | –
18 | CCOC(=O)N1CCN(C(=O)c2ccc3[nH]c(-c4ccc[nH]c4=O)c(-c4ccccc4)c3c2)CC1 [Compound 24, ethyl 4-{[2-(2-oxo-1,2-dihydropyridin-3-yl)-3-phenyl-1H-indol-5-yl]carbonyl}piperazine-1-carboxylate] | 80 to 100% | 50 to 79% | 50 to 79% | – | 80 to 100% | – | – | – | – | –
